Test results taken from PMC5602531, “Purification and characterisation of the yeast plasma membrane ATP binding cassette transporter Pdr11p” (PLoS ONE, 2017).

Experiments:
Format in all cases: biochemical
Pdr11p [1] = biological target: T1, Pdr11p (Saccharomyces cerevisiae, UniProt P40550); assay: radiolabelled ATPase assay (release of inorganic phosphate) with purified protein
T1 construct: gene PDR11; N-terminal FLAG-tagged Pdr11p, purified in DDM
T1 sequence (P40550 1-1411): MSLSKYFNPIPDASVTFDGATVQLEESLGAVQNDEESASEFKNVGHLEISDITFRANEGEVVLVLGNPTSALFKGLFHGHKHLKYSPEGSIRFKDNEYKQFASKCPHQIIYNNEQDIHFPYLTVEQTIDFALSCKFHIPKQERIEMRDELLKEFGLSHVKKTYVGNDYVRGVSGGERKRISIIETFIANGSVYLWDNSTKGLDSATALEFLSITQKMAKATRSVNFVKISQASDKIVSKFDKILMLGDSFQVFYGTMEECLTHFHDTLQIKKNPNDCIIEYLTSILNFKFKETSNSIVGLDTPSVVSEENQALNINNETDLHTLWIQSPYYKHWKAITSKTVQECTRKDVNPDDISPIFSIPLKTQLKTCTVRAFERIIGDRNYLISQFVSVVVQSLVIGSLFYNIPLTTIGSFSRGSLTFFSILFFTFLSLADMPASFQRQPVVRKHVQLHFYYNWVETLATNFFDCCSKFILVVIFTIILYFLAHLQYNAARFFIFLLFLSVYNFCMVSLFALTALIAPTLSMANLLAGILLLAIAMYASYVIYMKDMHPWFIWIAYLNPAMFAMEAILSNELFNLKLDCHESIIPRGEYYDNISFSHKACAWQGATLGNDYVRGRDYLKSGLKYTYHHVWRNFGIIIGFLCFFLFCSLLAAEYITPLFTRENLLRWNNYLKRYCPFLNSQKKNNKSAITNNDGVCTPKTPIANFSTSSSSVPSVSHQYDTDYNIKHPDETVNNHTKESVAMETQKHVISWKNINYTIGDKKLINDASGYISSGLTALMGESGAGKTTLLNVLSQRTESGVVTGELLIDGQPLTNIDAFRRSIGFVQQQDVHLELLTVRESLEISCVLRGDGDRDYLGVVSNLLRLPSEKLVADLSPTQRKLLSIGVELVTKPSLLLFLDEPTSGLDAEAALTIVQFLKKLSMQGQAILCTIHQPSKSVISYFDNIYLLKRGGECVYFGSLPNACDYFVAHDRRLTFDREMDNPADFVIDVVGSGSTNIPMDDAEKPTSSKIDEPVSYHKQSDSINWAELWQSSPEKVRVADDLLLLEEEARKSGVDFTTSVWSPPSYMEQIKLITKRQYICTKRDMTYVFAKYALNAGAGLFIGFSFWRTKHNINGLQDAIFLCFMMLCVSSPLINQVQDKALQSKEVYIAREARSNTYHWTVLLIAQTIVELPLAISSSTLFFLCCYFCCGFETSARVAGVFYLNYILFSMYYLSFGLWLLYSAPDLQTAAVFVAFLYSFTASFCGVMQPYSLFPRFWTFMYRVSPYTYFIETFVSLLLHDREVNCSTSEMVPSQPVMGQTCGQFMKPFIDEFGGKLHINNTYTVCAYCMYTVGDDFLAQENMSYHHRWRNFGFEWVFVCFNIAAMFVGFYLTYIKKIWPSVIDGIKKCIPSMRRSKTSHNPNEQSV

Aus1p = biological target: T2, Aus1p (Saccharomyces cerevisiae, UniProt Q08409); assay: radiolabelled ATPase assay with liposome-reconstituted protein
T2 construct: gene AUS1; FLAG-tagged Aus1p, purified and reconstituted in liposomes
T2 sequence (Q08409 1-1394): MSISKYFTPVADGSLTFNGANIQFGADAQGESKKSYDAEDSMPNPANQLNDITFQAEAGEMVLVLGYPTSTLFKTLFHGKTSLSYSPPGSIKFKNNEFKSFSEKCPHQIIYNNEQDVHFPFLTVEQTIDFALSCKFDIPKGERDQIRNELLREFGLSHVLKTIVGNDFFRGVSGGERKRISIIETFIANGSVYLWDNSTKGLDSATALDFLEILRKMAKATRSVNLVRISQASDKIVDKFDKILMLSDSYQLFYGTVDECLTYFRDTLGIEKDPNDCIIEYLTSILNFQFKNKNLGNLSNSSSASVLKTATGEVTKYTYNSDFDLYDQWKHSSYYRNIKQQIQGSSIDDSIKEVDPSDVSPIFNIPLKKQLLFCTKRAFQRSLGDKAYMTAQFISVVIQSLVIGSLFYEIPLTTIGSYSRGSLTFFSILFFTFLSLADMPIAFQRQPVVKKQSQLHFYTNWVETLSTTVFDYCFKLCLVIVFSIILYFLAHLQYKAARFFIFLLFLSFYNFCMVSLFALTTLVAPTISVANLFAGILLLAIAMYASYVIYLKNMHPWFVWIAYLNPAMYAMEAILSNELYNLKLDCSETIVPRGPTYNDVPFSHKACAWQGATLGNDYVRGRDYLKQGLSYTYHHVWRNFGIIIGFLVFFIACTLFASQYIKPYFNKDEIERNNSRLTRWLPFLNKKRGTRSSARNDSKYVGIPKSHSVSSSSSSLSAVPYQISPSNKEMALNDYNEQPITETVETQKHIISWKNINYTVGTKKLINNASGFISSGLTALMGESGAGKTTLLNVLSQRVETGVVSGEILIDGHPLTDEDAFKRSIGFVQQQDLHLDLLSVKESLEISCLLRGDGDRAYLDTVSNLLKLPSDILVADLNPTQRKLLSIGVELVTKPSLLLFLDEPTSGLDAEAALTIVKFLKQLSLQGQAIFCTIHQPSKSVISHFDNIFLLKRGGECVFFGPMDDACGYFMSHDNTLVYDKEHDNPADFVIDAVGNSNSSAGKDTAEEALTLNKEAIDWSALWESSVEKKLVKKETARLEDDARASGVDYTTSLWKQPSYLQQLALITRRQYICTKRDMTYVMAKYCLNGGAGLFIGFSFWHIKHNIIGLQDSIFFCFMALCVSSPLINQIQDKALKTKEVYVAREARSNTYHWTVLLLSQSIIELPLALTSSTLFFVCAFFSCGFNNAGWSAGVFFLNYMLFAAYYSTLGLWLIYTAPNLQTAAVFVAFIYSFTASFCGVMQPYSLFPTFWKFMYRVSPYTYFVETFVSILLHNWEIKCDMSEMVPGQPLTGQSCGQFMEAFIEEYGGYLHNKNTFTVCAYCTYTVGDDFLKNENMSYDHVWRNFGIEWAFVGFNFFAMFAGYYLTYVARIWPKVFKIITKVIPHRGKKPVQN

Pdr11p [2] = biological target: T1, Pdr11p; assay: radiolabelled ATPase assay with purified protein, […] AlF3
Pdr11p [3] = biological target: T1, Pdr11p; assay: radiolabelled ATPase assay, dose-response with purified protein

## Nc1ncnc2c1ncn2[C@@H]1O[C@H](COP(=O)(O)OP(=O)(O)OP(=O)(O)O)[C@@H](O)[C@H]1O [ATP]
Pdr11p [1]
  radiolabelled ATPase assay (release of inorganic phosphate) with purified protei: ~ 60 ± 24 nmol of ATP/min/mg of protein
Aus1p
  radiolabelled ATPase assay with liposome-reconstituted protein: Purified Pdr11p and Aus1p were reconstituted into different liposomes (containing Rho-PE as fluorescent lipid marker) and assayed for ATPase activity

## [F][Al]([F])[F] [aluminium fluoride]
Pdr11p [2]
  radiolabelled ATPase assay with purified protein, 1 mM AlF3: strongly inhibited by the classical inhibitors of ABC proteins beryllium fluoride and aluminium fluoride (Fig 4B)

## [O]=[V]([OH])([OH])[OH] [orthovanadate]
Pdr11p [3]
  IC50: 4 ± 2 mM
